For data set [1] the following is noted: in vivo; cited from earlier work.
For data set [2] the following is noted: pig, in vivo; cited from earlier work.
The conditions of data set [3]: in vivo; cited from earlier work. This is another data set of the same source.
Data set [4] concerns high fat diet induced obese (DIO) mouse model. Description: 4-week study of DA, liraglutide or their combination in high fat diet induced obese (DIO) mice (Example 2). In kind it is in vivo. On the procedure:
After arrival at the testing facility, all animals were acclimated to the vivarium for a period no less than 3 days and placed on a 60% Fat Rodent Diet (D12492; Research Diets), 12:12 dark/light cycle and group housed, 2-3 in hepa-filtered cages. All treatments were continued for four weeks. During the study period, gross observation (animal behavior and clinical signs) was conducted, and body weight measurement was performed three times per week for each animal. At the end of the study, all animals were fasted overnight before measurements were taken for serum levels of glucose, insulin, hemoglobin A1c (HbA1c), low-density lipoprotein (LDL) cholesterol, high-density lipoprotein (HDL) cholesterol, triglyceride (TG), and bile acid (BA). Statistical analysis of data was performed using one tail Student's t-test on Excel.

Another data set concerns ob/ob mice. The data set is described as follows: DA in ob/ob mice fed with high-fat diet, 8 weeks (Table 10). The note with it: DA 50 mg/kg BID for 8 weeks. In kind it is in vivo, mouse. The source says:
The data for the DPP-4 inhibitors was obtained from J. Clin. Biochem. Nutr. 2015; 57(3):244-53. Acta Pharmacol. Sin. 2012; 33(8): 1013-22. J. Pharmacol. Exp. Ther. 2012; 342(1): 71-80; and Eur. J. Pharmacol. 2008; 588(2-3):325-32.

Data set [5] concerns C57Bl/6J mice fed with high-fat diet. Description: DA in C57Bl/6J mice fed with high-fat diet, 8 weeks (Table 11). In kind it is in vivo, mouse. From the text: Similarly, Table 11 provides a comparison of denatonium acetate (DA) with DPP-4 inhibitors in similar ob/ob mice model. The data for the DPP-4 inhibitors was obtained from Am. J. Physiol. Endocrinol. Metab. 2011; 300(2); E410-E421. Biochim. Biophys. Acta Gen. Subj. 2018; 1862(3):403-413. PLOS One. 2012; 7(6):e38744; and Aging Cell. 2019; 18(2):e12883.

The test system of data set [6] is gut peptide hormones GLP-1, GLP-2 and PYY. The data set is described as follows: Phase 1 clinical trial of DA: gut peptide hormones before and one hour after a single oral dose (Example 3). The class given is in vivo, human. The note with it: in words, single dose DA 240 mg tablet vs placebo. On the procedure: This Example provides data of three gut peptide hormones from a phase 1 clinical trial of denatonium acetate after a single dose of DA at 240 mg in a tablet in the formulation disclosed herein. The subjects were either placebo or 240 mg DA and blood samples were taken just prior to dosing and one hour after oral dosing.

Data set [7] is described as follows: Appetite suppression effect of DA in animals. In kind it is in vivo. From the text:
Thus, twice daily dosing is preferred for abrogation of appetite throughout the day. […] Therefore, the preferred dosing for MetS treatment is QD.

The conditions of data set [8]: human, in vivo, po. From the text: Accordingly, the gut peptide hormone data in both the in vivo studies in the examples herein and the phase 1 clinical trial data in Example 3 show synergy for the treatment and/or management of glucagon-related diseases, disorders or conditions, various indications. […] The clinical data also corroborated the DIO mouse data (Example 2). Yet, the marketers of GLP-1 agonists (like those available from Novo Nordisk, Lilly) claim only GLP-1 is important for both diabetes and weight loss. Also, DPP-4 is an enzyme that degrades GLP-1 and PYY to give both of those hormones short half-lives. Accordingly, in some embodiments herein, a DPP-4 inhibitor is used as part of the API combination.
Therefore, both the pharmacokinetic data in a clinical trial (Example 3) for DA and the pharmacokinetic data published for commercially-marketed sitagliptin, support non-cumulative toxicity risk. Accordingly, DPP-4i drugs and the denatonium salts listed herein are an effective oral combination for the treatment of obesity.
For sitagliptin as a single agent, the current guidelines indicate a daily dose of 100 mg PO QD (notwithstanding for those with renal impairment, recommended doses can be as low as 25 mg to 50 mg PO QD). […] In view of DA's pharmacokinetics (substantial gut restriction) and relatively non-toxic nature, the optimal dose ranges can be safely adjusted higher. […]

Data set [9] has as its system AMLN-diet induced mice (fatty liver disease/NASH model). In kind it is in vivo. The conditions noted are these: in words. The source says: This Example provides the results obtained from an in vivo mouse model of fatty liver disease treatment to investigate the therapeutic effect of DA on the treatment of NASH versus positive control semaglutide (a GLP-1 agonist marketed drug for lowering HbA1c). This study used a positive control semaglutide, a vehicle control, study drug DA and a combination of semaglutide and DA. Mouse strain (B6 mice) was used, and the animals were already adults (23 weeks old) when the study began because the animals were already fed an AMLN diet for 17 weeks prior to the study being initiated. The study dose began at 75 mg/kg BID.
The study included 3 groups of 10 mice each, (A) vehicle control with distilled water by gavage BID, (B) DA by gavage BID, and (C) semaglutide […] sc QD. Body weights and changes were measured 3× per week. Serum metabolic markers (blood glucose, blood insulin, HbA1c, HDL, LDL triglycerides and bile acids) were measured at beginning of dosing (baseline) and end of study. At the end of the study, histopathology of liver samples and serum levels of inflammatory biomarkers (IL-6, TNFα, CK-18 and TGF-β) were evaluated. Histopathology was performed blindly with a scoring scale according to NAFLD Activity Score and Fibrosis Score according to Table 13. Table 14 identifies the kits and equipment used to measure serum parameters.

Data set [10] has as its system high-fat diet-induced obese (DIO) mice. In kind it is in vivo. The note with it: in words. The method, then: This Example provides the results from an in vivo study of denatonium acetate and sitagliptin in high-fat diet-induced obese (DIO) mice. C57BL/6NTac mice (at least 12 weeks of age) were fed with a high fat diet. All mice were dosed orally by gavage as (a) Vehicle group (N=15) dosed with distilled water BID, (b) DA group (N=15) dosed at 75 mg/kg (denatonium weight) BID; (c) sitagliptin group (N=15) dosed by gavage with 10 mg/kg QD; and (d) DA+ sitagliptin group (N=15) treated with DA at 75 mg/kg (denatonium based weight) BID and sitagliptin at 10 mg/kg by gavage QD. The groups were dosed for 8 weeks followed by a 5-7 day […] period. Body weight and body weight changes were measured three times per week. Serum biomarker levels for blood glucose (after fasting 6-8 hours), blood insulin, percentage of blood HvA1c, HDL, LDL, total triglycerides (TG), total cholesterol (TC) and bile acid were measured twice during the study at day 28 and at the end (day 56) of the study. Cumulative food intake and water consumption for each animal was measured.

Setting [11] is: each animal, end of study (Day 31), DA 75 mg/kg PO BID, liraglutide 200 μg/kg SC BID, 4-week dosing.
Where [12] appears, read: group mean, end of study (Day 31), DA 75 mg/kg PO BID, liraglutide 200 μg/kg SC BID, 4-week dosing.
Setting [13] is: in words, vs vehicle, Day 31, DA 75 mg/kg PO BID, liraglutide 200 μg/kg SC BID.
The mark [14] stands for this setting: in words, Day 31, 4-week dosing.

Values joined by “and” are separate entries in the source; they are usually repeats but may differ in a detail not shown here. Equal values may be shown once. “Also recorded” adds a separate entry of the source. Read-outs that look alike come from different tables or passages of the source. Marks after values point to notes of the source that are not given here. Some results are limits rather than exact numbers.

`O=C1[C@H](CC[C@H](O)c2ccc(F)cc2)[C@@H](c2ccc(O)cc2)N1c1ccc(F)cc1` [Ezetimibe]: the “reduction of LDL cholesterol” value in data set [1] is recorded as “about 18%”.

As for “PYY (3-36): DPP-4 cleaved form of the gut peptide hormone PYY”, in data set [2], the half-life was < 30 min.

As for “PYY: gut peptide hormone released from L-cells”, the half-life in data set [3] is 9 to 14 min.

Turning to `CC(=O)[O-].CC[N+](CC)(CC(=O)Nc1c(C)cccc1C)Cc1ccccc1` [DA, denatonium acetate], in [4] (setting [11]), the “Body Weight Gain” value was 10.1 g and 6.7 g and 7.2 g (3×) and 9.6 g (2×) and 7.4 g and 5.2 g and 7 g and 8.1 g and 6.9 g and 11.2 g and 4.5 g and 7.5 g; the “Serum TG Level” value was 13.06 mmol/L and 13.49 mmol/L and 11.69 mmol/L and 13.35 mmol/L and 18.18 mmol/L and 14.27 mmol/L and 15.38 mmol/L and 12.93 mmol/L and 15.46 mmol/L and 19.24 mmol/L and 11.73 mmol/L and 15.13 mmol/L and 13.72 mmol/L and 13.59 mmol/L and 15.48 mmol/L. In [4] (setting [12]), the “Body Weight Gain, Mean” value came out at 7.69 g and the “Serum TG Level, Mean” value is given as 14.45 mmol/L. The “serum BA level” value in data set [4] (in words, vs vehicle control, Day 31, 4-week dosing) is recorded as “significant increase in serum BA level”. In [4] (setting [13]), the Body Weight Gain result is “significantly reduced” and the “Serum TG Level” value was “significantly decreased serum TG level”. For the same compound, in data set [4] (setting [14]), the “serum HbA1c level” value was “did not show significant effect”, the “serum LDL level” value is listed as “no significant difference in serum LDL level”, the serum glucose level result is “significantly decreased serum glucose level” and the serum insulin level entry was “considerably decreased serum insulin level”. Moreover, in the data set on ob/ob mice, the “Control-adjusted Percent Change in Fasting Blood Glucose” value is listed as −29.3%*, the “Control-adjusted Percent Change in HbA1c Level” value was “+0.8%”, the “Control-adjusted Percent Change in Insulin Level” value is reported as “+4.3%” and the “Control-adjusted Percent Change in LDL Level” value was −27.5%*. Besides, in the data set on ob/ob mice, the “Control-adjusted Percent Change in TG Level” value is on record as −21.2%*. Also, in data set [5] (DA 75 mg/kg BID for 8 weeks), the “Control-adjusted Percent Change in Body Weight Gain” value is reported as −33.9%*, the “Control-adjusted Percent Change in Fasting Blood Glucose” value is −5.3%, the “Control-adjusted Percent Change in GLP-1 Level” value is “+27.5%*” and the “Control-adjusted Percent Change in Insulin Level” value was −42.9%. Further, the “Control-adjusted Percent Change in Lipid Levels: LDL” value in data set [5] (DA 75 mg/kg BID for 8 weeks) is −18.3% in LDL. The “Control-adjusted Percent Change in HbA1c Level” value in [5] (DA 75 mg/kg BID, at the end of Week 4) is listed as −3.7%* (at the. Moreover, the “percent change for GLP-1 between time 0 and one hour after oral dosing” value in data set [6] was “the difference was significant”. In data set [6] (one hour after dosing), the “GLP-2 gut peptide hormone” value is given as “trend for GLP-2 gut peptide hormone increase” and the “PYY gut peptide hormone” value was “trend for PYY gut peptide hormone increase”. The “duration of observed appetite suppression effect” value in data set [7] is “about 8 hours”. For the same compound, in data set [8], the gut-restricted is ~99% and the “safe dosing in phase 1 clinical trial” value is on record as “safely dosed to 240 mg PO BID”. In data set [9] (12 weeks, DA 75 then 50 mg/kg BID by gavage, semaglutide 10 mmol/kg sc QD), the “NAFLD Activity Score based on blinded histopathologic review” value is given as “significantly improved NAFLD Activity Score”. In addition, in data set [9] (12 weeks, DA 75 then 50 mg/kg BID, semaglutide 10 mmol/kg sc QD), the “body weight and body weight change” value is listed as “remarkable effect on body weight”. Besides, in data set [9] (end of study), the HDLs result is “significantly decreased”, the LDLs result is given as “significantly decreased” and the TGs entry is “significantly decreased”. The “fasting blood glucose levels” value in data set [10] (vs vehicle controls, day 28 and day 56) is “significantly decreased fasting blood glucose levels”. Also, the “high-density lipoprotein (HDL) levels” value in data set [10] (vs vehicle controls, day 56 (FIG. 22B)) was “significantly decreased high-density lipoprotein (HDL) levels”. In [10] (56-day study summary), the weight loss entry is given as “significant weight loss; also recorded: statistically significant reduction of weight in the DA group versus the sitagliptin group”. Also, the “effect on body weight (relative body weight percentage and relative body weight change)” value in data set [10] (DA 75 mg/kg BID, sitagliptin 10 mg/kg QD by gavage, 8 weeks) is listed as “much greater effect on body weight”. The “effect on body weight” value in data set [10] (day 56) is given as “significant effect on body weight”. For the same compound, the “translationally relevant biomarkers (blood glucose, HbA1C, insulin, triglycerides, LDL cholesterol, total cholesterol)” value in data set [10] (relative to sitagliptin alone) is “superior benefit relative to sitagliptin alone”.

Values taken from patent US20240216476A1, “COMBINATION OF BITTER RECEPTOR AGONIST AND GUT-SIGNALING COMPOUND” (AARDVARK THERAPEUTICS, INC., priority 2021, published 2024).
